Test [1] has as its target T1, CAMKIIα (Homo sapiens, UniProt Q9UQM7).
T1 construct: purchased Enzo Life Sciences
On the set-up: method as in PMID 18829454. To be noted: previously reported; cited from earlier work.

The test system of test [2] is PC3 cells. Set-up: method as in PMID 18829454. Particulars: 10 or 25 μM for six days; cited from earlier work.
Test [3] relates to PLK1. Set-up: method as in PMID 18829454. Particulars: previously reported; cited from earlier work.
Test [4] relates to CAK. On the set-up: method as in PMID 18829454. To be noted: previously reported; cited from earlier work.
The test system of test [5] is protein kinase B (AKT/PKB). Set-up: method as in PMID 18829454. Particulars: previously reported; cited from earlier work.
In test [6] the target is ABL (Homo sapiens, UniProt P00519). Description: Kinase profiling, single-dose in vitro kinase assay (Caliper Life Sciences). To be noted: read-out: Average % Inhibition ABL.
Chain of ABL (P00519 whole entry): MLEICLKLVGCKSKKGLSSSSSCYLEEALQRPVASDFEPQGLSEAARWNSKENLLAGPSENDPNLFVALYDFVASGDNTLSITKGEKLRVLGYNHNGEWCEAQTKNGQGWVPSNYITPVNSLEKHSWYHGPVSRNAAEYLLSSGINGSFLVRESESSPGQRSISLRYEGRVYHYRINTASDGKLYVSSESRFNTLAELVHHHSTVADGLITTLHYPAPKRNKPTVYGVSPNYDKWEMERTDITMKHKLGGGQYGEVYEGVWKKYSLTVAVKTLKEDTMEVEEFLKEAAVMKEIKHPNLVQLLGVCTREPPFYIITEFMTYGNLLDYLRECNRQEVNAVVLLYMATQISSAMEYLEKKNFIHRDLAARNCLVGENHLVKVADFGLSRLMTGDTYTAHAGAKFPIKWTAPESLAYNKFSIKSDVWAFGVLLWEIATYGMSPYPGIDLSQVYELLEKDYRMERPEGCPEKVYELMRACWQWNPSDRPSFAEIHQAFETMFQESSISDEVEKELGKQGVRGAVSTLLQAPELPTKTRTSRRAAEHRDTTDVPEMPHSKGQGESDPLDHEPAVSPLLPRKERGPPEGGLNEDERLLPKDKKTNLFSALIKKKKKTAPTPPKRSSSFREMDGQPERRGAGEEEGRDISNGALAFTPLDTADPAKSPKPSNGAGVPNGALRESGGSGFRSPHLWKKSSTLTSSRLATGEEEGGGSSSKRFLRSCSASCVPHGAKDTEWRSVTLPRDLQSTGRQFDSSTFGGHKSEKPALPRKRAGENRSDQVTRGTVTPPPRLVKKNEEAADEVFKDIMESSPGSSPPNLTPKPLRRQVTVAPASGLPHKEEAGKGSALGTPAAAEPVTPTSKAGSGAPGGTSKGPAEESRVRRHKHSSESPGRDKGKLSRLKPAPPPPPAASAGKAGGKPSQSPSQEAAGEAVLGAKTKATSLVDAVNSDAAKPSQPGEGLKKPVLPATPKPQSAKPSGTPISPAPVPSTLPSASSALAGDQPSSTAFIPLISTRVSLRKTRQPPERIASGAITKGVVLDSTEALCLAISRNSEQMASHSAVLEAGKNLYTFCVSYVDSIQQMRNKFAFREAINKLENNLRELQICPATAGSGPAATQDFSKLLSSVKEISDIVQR
The target of test [7] is AKT1 (Homo sapiens, UniProt P31749). The test is described as above. Particulars: read-out: Average % Inhibition AKT1.
Chain of AKT1 (P31749 whole entry): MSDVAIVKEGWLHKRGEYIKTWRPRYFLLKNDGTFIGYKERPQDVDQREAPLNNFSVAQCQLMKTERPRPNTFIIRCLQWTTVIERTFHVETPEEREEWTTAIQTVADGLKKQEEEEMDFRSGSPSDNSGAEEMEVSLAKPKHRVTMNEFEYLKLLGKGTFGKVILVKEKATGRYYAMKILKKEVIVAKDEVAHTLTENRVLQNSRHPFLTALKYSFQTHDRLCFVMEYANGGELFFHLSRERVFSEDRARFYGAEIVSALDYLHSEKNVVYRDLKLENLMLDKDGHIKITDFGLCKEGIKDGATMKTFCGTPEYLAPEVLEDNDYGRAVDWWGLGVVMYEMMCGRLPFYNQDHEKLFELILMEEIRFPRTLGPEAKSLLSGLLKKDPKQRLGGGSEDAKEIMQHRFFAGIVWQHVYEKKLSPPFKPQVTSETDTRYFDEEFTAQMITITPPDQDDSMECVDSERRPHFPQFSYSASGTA
The target of test [8] is AKT2 (Homo sapiens, UniProt P31751). Described as above. To be noted: read-out: Average % Inhibition AKT2.
For test [9], the target named is CHK1 (Homo sapiens, UniProt O14757). The test is described as above. To be noted: read-out: Average % Inhibition CHK1.
Chain of CHK1 (O14757 whole entry): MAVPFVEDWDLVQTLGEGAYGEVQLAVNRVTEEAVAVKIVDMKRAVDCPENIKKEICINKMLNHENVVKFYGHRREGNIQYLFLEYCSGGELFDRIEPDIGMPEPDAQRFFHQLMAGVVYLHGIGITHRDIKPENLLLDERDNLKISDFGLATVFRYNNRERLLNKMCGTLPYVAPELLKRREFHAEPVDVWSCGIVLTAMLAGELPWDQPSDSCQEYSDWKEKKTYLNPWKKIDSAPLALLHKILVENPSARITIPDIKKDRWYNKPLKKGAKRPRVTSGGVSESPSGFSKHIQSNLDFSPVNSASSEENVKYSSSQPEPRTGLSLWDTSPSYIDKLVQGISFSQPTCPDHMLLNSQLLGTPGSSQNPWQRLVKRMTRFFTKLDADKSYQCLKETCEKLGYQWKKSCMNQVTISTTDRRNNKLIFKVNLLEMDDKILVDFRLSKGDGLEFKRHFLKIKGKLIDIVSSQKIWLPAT
In test [10] the target is CHK2 (Homo sapiens, UniProt O96017). The description is as above. To be noted: read-out: Average % Inhibition CHK2.
The target in test [11] is c-Raf (Homo sapiens, UniProt P04049). The description is as above. Particulars: read-out: Average % Inhibition c-Raf.
Chain of c-Raf (P04049 whole entry): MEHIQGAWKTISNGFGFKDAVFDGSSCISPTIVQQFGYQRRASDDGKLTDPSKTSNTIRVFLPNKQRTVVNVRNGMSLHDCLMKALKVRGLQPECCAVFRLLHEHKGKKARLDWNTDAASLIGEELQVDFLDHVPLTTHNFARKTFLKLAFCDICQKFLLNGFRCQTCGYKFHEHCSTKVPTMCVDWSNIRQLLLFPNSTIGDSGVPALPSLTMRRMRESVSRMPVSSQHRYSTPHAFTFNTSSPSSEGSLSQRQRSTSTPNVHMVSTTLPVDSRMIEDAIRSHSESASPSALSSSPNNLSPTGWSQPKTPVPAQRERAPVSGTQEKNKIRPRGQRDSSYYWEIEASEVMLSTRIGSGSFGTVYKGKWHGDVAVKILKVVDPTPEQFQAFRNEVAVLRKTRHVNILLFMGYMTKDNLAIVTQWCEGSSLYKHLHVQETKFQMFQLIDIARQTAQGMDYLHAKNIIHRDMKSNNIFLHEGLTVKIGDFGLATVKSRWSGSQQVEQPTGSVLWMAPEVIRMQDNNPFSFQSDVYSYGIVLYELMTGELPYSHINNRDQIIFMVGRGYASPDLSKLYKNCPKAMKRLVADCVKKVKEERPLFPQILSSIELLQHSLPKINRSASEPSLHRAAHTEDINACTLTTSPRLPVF
Test [12] has as its target ErbB4 (Homo sapiens, UniProt Q15303). The test is described as above. To be noted: read-out: Average % Inhibition ErbB4.
The target in test [13] is Erk2 (Homo sapiens, UniProt P28482). The description is as above. Particulars: read-out: Average % Inhibition Erk2.
The target of test [14] is FLT3 (Homo sapiens, UniProt P36888). The description is as above. Particulars: read-out: Average % Inhibition FLT3.
Chain of FLT3 (P36888 27-993): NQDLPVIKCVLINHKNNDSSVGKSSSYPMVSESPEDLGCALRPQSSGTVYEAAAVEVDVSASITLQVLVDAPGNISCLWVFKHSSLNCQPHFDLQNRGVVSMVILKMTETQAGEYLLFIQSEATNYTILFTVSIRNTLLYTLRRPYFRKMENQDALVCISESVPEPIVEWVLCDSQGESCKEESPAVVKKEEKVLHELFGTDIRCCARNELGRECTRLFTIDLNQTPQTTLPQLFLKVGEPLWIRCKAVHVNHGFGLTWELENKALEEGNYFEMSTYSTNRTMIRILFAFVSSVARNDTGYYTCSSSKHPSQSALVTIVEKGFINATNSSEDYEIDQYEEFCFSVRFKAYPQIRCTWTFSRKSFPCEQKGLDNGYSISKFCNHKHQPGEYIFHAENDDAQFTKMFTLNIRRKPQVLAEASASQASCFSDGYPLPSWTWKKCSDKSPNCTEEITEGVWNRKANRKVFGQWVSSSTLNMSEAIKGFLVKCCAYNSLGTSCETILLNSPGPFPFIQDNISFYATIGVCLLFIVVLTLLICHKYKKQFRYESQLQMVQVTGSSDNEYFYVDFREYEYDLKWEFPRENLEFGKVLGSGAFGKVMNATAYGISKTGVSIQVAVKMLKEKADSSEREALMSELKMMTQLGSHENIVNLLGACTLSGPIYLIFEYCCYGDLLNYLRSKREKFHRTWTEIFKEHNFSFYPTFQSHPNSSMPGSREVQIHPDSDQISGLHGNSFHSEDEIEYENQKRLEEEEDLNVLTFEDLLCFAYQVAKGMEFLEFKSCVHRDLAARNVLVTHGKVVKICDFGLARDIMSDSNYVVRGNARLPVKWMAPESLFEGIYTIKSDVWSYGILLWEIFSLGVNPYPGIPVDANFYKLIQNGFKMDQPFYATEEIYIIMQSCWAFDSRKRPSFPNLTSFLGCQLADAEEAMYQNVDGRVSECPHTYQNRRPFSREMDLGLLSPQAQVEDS
Test [15] addresses IBSR (Homo sapiens, UniProt P06213). Described as above. To be noted: read-out: Average % Inhibition IBSR.
The target of test [16] is MET (Homo sapiens, UniProt P08581). The test is described as above. To be noted: read-out: Average % Inhibition MET.
For test [17], the target named is MSK1 (Homo sapiens, UniProt O75582). Described as above. To be noted: read-out: Average % Inhibition MSK1.
Test [18] has as its target PAK2 (Homo sapiens, UniProt Q13177). The description is as above. Particulars: read-out: Average % Inhibition PAK2.
Test [19] deals with PKA (Homo sapiens, UniProt P17612). Described as above. To be noted: read-out: Average % Inhibition PKA.
The target in test [20] is PKCζ (Homo sapiens, UniProt Q05513). Described as above. To be noted: read-out: Average % Inhibition PKCζ.
Test [21] concerns the target PKG1α (Homo sapiens, UniProt Q13976). The description is as above. To be noted: read-out: Average % Inhibition PKG1α.
Test [22] addresses RSK1 (Homo sapiens, UniProt Q15418). The test is described as above. Particulars: read-out: Average % Inhibition RSK1.
For test [23], the target named is SYK (Homo sapiens, UniProt P43405). The test is described as above. Particulars: read-out: Average % Inhibition SYK.
In test [24] the target is T2, PKCδ (Homo sapiens, UniProt Q05655).
T2 construct: purchased Enzo Life Sciences
T2 sequence (Q05655 whole entry): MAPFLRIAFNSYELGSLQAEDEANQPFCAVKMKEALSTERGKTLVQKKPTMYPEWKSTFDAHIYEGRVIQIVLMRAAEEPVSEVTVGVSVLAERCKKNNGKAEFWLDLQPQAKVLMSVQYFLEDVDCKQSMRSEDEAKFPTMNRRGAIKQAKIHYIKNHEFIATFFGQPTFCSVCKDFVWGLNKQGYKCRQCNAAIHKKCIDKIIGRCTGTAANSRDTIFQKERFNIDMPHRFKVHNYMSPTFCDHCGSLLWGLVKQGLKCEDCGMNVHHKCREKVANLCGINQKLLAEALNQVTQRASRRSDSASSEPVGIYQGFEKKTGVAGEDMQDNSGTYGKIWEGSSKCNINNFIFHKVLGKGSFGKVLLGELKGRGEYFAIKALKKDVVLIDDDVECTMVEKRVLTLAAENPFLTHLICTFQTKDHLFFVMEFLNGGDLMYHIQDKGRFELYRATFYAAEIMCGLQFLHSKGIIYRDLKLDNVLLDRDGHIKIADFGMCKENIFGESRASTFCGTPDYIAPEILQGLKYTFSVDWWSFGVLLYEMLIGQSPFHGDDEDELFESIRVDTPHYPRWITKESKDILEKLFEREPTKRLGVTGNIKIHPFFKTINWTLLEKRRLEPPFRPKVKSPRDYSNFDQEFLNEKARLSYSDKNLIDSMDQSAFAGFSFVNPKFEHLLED
Briefly: In vitro radiometric PKC kinase assay. Format: biochemical. As to the method: The PKC in vitro kinase assays were performed as described previously.
To determine whether the novel analogs retained this specificity, we tested the compounds against their ability to inhibit PKCα, -βI, -δ, and CAMKIIα in in vitro radiometric kinase activity assays.
Inhibition of PKCα (A), PKCβI (B), PKCδ (C), or CAMKIIα (D) by each of the 5 analogs was determined at 100 nM, 1 μM, and 10 μM concentrations. […] Data are the mean ± S.E.M. of three independent experiments. Statistical significance was determined using the unpaired t-test. ns, not statistically significant; *, p < 0.05; **, p < 0.01; ***, p < 0.001.

In test [25] the test system is PC3 cells. Briefly: Cell proliferation assay (cell counts, trypan blue). To be noted: 10 μM, cell counts over six days. The format is cell-based. The source says:
Cells were allowed to attach overnight.

Chain of PKG1α (Q13976 whole entry): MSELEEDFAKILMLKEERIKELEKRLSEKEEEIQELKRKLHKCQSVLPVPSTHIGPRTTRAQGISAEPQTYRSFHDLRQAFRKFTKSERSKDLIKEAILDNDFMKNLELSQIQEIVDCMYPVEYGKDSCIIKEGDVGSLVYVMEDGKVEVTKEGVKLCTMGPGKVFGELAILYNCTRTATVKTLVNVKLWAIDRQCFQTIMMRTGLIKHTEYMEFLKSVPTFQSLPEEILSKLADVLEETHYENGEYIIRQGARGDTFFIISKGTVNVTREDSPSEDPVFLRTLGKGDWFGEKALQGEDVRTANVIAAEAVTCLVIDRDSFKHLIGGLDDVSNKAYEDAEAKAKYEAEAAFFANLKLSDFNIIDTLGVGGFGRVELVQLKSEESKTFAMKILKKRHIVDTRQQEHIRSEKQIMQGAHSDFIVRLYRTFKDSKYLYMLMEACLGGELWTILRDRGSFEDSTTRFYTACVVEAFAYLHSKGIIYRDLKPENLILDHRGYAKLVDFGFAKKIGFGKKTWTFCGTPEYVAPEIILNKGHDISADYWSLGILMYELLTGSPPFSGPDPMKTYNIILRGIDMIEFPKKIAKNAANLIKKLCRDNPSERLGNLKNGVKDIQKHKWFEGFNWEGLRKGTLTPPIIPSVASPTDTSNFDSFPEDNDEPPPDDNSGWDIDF

Turning to `O=C1NCCCc2c1oc1ccc(O)cc21` [CID755673, 7-Hydroxy-2,3,4,5-tetrahydro-[1]benzoxolo[2,3-c]azepin-1-one], the “inhibition of CAMKIIα” value in test [1] is recorded as “did not inhibit”. The cell cycle arrest entry in [2] is recorded as “caused G2/M phase cell cycle arrest”. In test [3], the “inhibition of PLK1” value is reported as “did not inhibit”. Further, in [4], the “inhibition of CAK” value is “did not inhibit”. In test [5], the “inhibition of protein kinase B (AKT/PKB)” value was “did not inhibit”. Further, the inhibition at 10 µM is 8% in test [6]; 3% in [7]; 4% in [8]; 7% in test [9]; 4% in test [10]; 2% in [11]. Further, the inhibition at 10 µM in [12] worked out at 1%; in [13], 31%; in test [14] it was 14%; in test [15] it was 3%; in [16] it was 18%; in test [17] it was 7%. Further, the inhibition at 10 µM in test [18] is 3%; in test [19] it was 6%; in [20], -4%; in test [21], 13%; in [22], 29%; in test [23], -8%.

`O=C1NCCSc2c1sc1ccc(O)c(I)c21` [kb-NB165-31]: the “inhibition of PKCδ (in words)” value in test [24] was “significant inhibitory activity”. For the same molecule, the inhibition at 10 µM in test [24] (10 μM, read-out: inhibitory activity toward PKCδ) was around 50%.

As to `O=C1NCCSc2c1sc1ccc(O)cc21` [kb-NB142-70], the “effect on cell proliferation” value in [25] was “most potent among the compounds”.
